# Results: patent publication US12544368B2, “Compositions and methods for reducing cancer stem cells” (The Regents of the University of Colorado, A Body Corporate, priority 2018, dated 2026)
# Columns and labels:
# de novo LSCs = test: APO866 treatment of LSCs from de novo AML patients (NAD+, viability, colony formation, OXPHOS); assay type: cell-based, human
# Source text: (§1) To determine if nicotinamide metabolism is important in LSC survival, particularly in the context of relapsed disease, LSCs were first isolated from de novo AML and relapsed AML patients and analyzed. […] Nicotinamide is a precursor of NAD+, an essential coenzyme in energy metabolism. To test if relapsed LSCs are dependent on nicotinamide metabolism to maintain energy metabolism, nicotinamide metabolism was disrupted in LSCs using the small molecule APO866, which is an inhibitor of Nampt, the rate-limiting enzyme for conversion of nicotinamide to NAD+.
# (§2) To better understand the mechanism by which inhibiting nicotinamide metabolism targets relapsed LSCs, changes in OXPHOS and glycolysis activity in de novo and relapsed LSCs after APO866 treatment was measured. […] No change in glycolysis was observed.
# isocitrate dehydrogenase = test: TCA cycle enzyme activity in relapsed LSCs after APO866; assay type: cell-based, human; conditions: 4 hours
# [1] = test system: α-ketoglutarate dehydrogenase; test: as above; assay type: cell-based, human; conditions: 4 hours
# [2] = test system: relapsed AML patient sample; test: Engraftment of APO866-treated relapsed AML patient sample into immune deficient mice; assay type: in vivo; conditions: sample treated for 24 hours before engraftment
# malate dehydrogenase = test: TCA cycle enzyme activity in relapsed LSCs after APO866; assay type: cell-based, human; conditions: 4 hours
# relapsed LSCs = test: APO866 treatment of LSCs from relapsed AML patients (NAD+, viability, colony formation, OXPHOS, glycolysis, metabolic flux); assay type: cell-based, human
# Source text: as §1, §2
# To determine how APO866 reduced OXPHOS, stable isotope metabolic flux of amino acids, the fatty acid palmitate, and glucose into the TCA cycle after APO866 treatment was measured.
# CD34+/CD38−/CD123+ cells = test: Viability of cell populations from MDS patient samples in vitro; assay type: cell-based, human; conditions: for viability / killing of CD123+ MDS stem cells: MDS patient samples, anisomycin 200 nM and 400 nM, ABT-199 200 nm, omacetaxine 200 nM, azacitidine 2.5 μM
# Method: Strategies involving inhibiting protein translation were investigated as a means of improving therapeutic outcomes for MDS through the targeting of pathways deregulated in the CD123+ MDS stem cell compartment. A reagent grade compound, anisomycin was tested. Anisomycin is known to inhibit protein translation and induce “ribotoxic stress”.
# (§3) Next, the drug omacetaxine mepesuccinate was tested. Omacetaxine is a protein synthesis inhibitor which is FDA approved.
# The drug azacitidine was also tested.
# The second major phenotype found to be deregulated in CD123+ cells was oxidative phosphorylation and redox status. Thus, the ability of the BCL-2 inhibitor ABT-199 (venetoclax) to preferentially eliminate MDS stem cells was tested.
# LSCs = test: In vitro viability of LSCs from AML patient samples; assay type: cell-based, human
# AML blasts = test: OXPHOS (seahorse assay) in leukemia cells from patients pre and 24 hours post treatment; assay type: in vivo, human; conditions: patients receiving single agent
# ETC complex II = test: Glutathione, sdhA glutathionylation and ETC complex II activity in primary AML specimens in vitro; assay type: cell-based, human
# MDS stem cells = test: Patient bone marrow derived xenograft model of MDS in NSG-S mice; assay type: in vivo; conditions: for engraftment models with single agent toxicity for human CD45+ cells: three high-risk MDS patient xenografts
# Source text: To further evaluate the clinical potential of various agents for targeting of MDS stem cells, an in vivo patient bone marrow derived xenograft model of MDS was developed. The system employed the use of primary MDS specimens transplanted into immune deficient NSG-S mice.
# Xenografts established using specimens from three independent high-risk MDS patients were used. Drug treatments included single agent therapy with omacetaxine, venetoclax (ABT), azacitidine, the combination of omacetaxine and venetoclax, or the combination of omacetaxine and azacitidine. To evaluate overall drug activity, the reduction of total human hematopoietic cells was measured using the CD45 (pan-hematopoietic) antigen as a marker. […] Next, drug activity in the stem cell compartment was monitored by gating on the CD34+/CD38−/CD123+ subpopulation.
# ROS-low LSCs = test: In vitro amino acid uptake, amino acid levels and transporter expression in LSCs; assay type: cell-based, human; conditions: LSCs isolated from three patients
# Method: Amino acid levels and cell viability were then measured.
# protein synthesis = test: Protein translation levels (OP-puro) in MDS cells; assay type: cell-based, human; conditions: MDS patient samples, 4 hours
# Method: The upregulation of the translation gene sets indicates a potential for increased protein synthesis in the CD123+ stem cell population. To further investigate changes in translational activity, protein synthesis levels were measured by culturing cells with a fluorescent substrate known as OP-puro, which is incorporated into newly synthesized polypeptide chains and can be quantified as a measure of overall protein synthesis activity.
# as §3
# primary MDS cells = test: Mitochondrial respiration of primary MDS cells; assay type: cell-based, human
# Source text: An additional component of the efficacy observed with combined ABT-199 and omacetaxine may involve suppression of MCL-1 as increased MCL-1 expression in CD34+/CD123+ MDS cells was observed. Resistance to BCL-2 inhibition can be overcome via treatment with protein synthesis inhibitors, which down-regulate expression of MCL-1.
# MOLM-13 cells = test: Valinomycin-induced mitophagy in MOLM-13 cells; assay type: cell-based, human; conditions: control MOLM-13 cells
# Method: To test whether FIS1 is responsible for the distinct mitochondrial morphology, shRNA-mediated knockdown studies in both the AML cell line MOLM-13 and primary AML cells were performed to examine the effect of FIS1 loss on mitochondrial dynamics. […] To determine if the increased mitochondrial content in FIS1-depleted AML cells is caused by a deficient state of mitophagy, mitophagy was induced in the FIS1-depleted and control cells using the mitochondrial stress inducer valinomycin. […] Expression of PINK1, a kinase stabilized upon mitophagy activation and involved in the clearance of damaged mitochondria was also measured.
# CD34+ cells = test: Valinomycin treatment of normal CD34+ cells; assay type: cell-based, human; conditions: control and shFIS1 CD34+ cells
# [3] = test system: LSCs and non-LSCs from human AML specimens; test: Valinomycin treatment of freshly sorted LSCs and non-LSCs; assay type: cell-based
# Method: To determine whether primary AML cells with a higher expression of FIS1 have increased mitophagy activity, valinomycin treatment experiments were performed on freshly sorted LSCs and non-LSCs from human AML specimens.
molecule,measurement,setting,value
O=C(/C=C/c1cccnc1)NCCCCC1CCN(C(=O)c2ccccc2)CC1 [APO866],normal hematopoietic stem cell frequency or colony forming ability,normal HSPCs,did not affect
same,NAD+,de novo LSCs; LSCs from de novo AML patient samples,significant decrease in NAD+
same,viability and colony-forming ability,"de novo LSCs; LSCs from de novo, untreated patients, 24 hours","not LSCs from de novo, untreated patients"
same,OXPHOS and OXPHOS capacity,"de novo LSCs; de novo LSCs, 4 hours",not de novo LSCs
same,isocitrate dehydrogenase activity,isocitrate dehydrogenase,significantly decreased
same,α-ketoglutarate dehydrogenase activity,[1],significantly decreased
same,leukemia engraftment,[2],significant reduction in leukemia engraftment
same,malate dehydrogenase activity,malate dehydrogenase,significantly decreased
same,NAD+,relapsed LSCs; LSCs from relapsed AML patient samples,significant decrease in NAD+
same,viability and colony-forming ability,"relapsed LSCs; LSCs from relapsed AML patients, 24 hours",decreased viability and colony-forming ability
same,glycolysis,relapsed LSCs; de novo and relapsed LSCs,No change
same,OXPHOS and OXPHOS capacity,"relapsed LSCs; relapsed LSCs, 4 hours",significant decrease
same,"citrate, malate, and α-ketoglutarate from amino acids and palmitate",relapsed LSCs; stable isotope metabolic flux,increased accumulation
same,glycolysis or glucose contribution to the TCA cycle,relapsed LSCs; stable isotope metabolic flux,No changes
"COc1ccc(C[C@H]2NC[C@H](O)[C@H]2OC(C)=O)cc1 [Anisomycin, anisomycin]",viability / killing of CD123+ MDS stem cells,CD34+/CD38−/CD123+ cells,selective killing
Nc1ncn([C@@H]2O[C@H](CO)[C@@H](O)[C@H]2O)c(=O)n1 [azacitidine],ROS-low LSC and ROS-high AML blast viability,"LSCs; in vitro, 500 nM venetoclax, 2.5 μM azacitidine, 24 hours",potentiates the effect of venetoclax
same,patients without alterations in OXPHOS levels,AML blasts,two of three
same,ROS levels,ETC complex II,can increase ROS levels
same,engraftment models with single agent toxicity for human CD45+ cells,MDS stem cells,one
same,amino acid transporter expression,ROS-low LSCs,Neither venetoclax nor azacitidine could reduce expression
same,viability / killing of CD123+ MDS stem cells,CD34+/CD38−/CD123+ cells,no significant decreases in viability
same,toxicity between CD123+ vs. CD123−,CD34+/CD38−/CD123+ cells; seven high-risk MDS patient specimens,no differential toxicity
CCOC(=O)[C@@]1(CCCCCCOc2ccc(Cl)cc2)CO1 [etomoxir],sensitization of LSCs,LSCs; venetoclax/azacitidine resistant LSCs,potently sensitizes LSCs to venetoclax+azacitidine
"COC(=O)C[C@](O)(CCCC(C)(C)O)C(=O)O[C@@H]1C(OC)=C[C@]23CCCN2CCc2cc4c(cc2[C@H]13)OCO4 [omacetaxine, omacetaxine mepesuccinate]",protein translation levels,protein synthesis,effective at decreasing protein translation levels
same,engraftment models with single agent toxicity in the more primitive cells,MDS stem cells; CD34+/CD38−/CD123+ subpopulation,2 of 3
same,reduction in CD34+/CD38−/CD123+ cells,MDS stem cells; each xenograft,greater than or equal to 50%
same,reduction in CD34+/CD38−/CD123+ cells,MDS stem cells; one xenograft,> 80%
same,engraftment models with single agent toxicity for human CD45+ cells,MDS stem cells,two
same,mitochondrial respiration,primary MDS cells,impairs mitochondrial respiration
same,viability / killing of CD123+ MDS stem cells,CD34+/CD38−/CD123+ cells,specifically targeted CD123+ cells
CC(C)[C@@H]1NC(=O)[C@H](C)OC(=O)[C@@H](C(C)C)NC(=O)[C@@H](C(C)C)OC(=O)[C@H](C(C)C)NC(=O)[C@H](C)OC(=O)[C@@H](C(C)C)NC(=O)[C@@H](C(C)C)OC(=O)[C@H](C(C)C)NC(=O)[C@H](C)OC(=O)[C@@H](C(C)C)NC(=O)[C@@H](C(C)C)OC1=O [valinomycin],mitochondrial content,MOLM-13 cells,loss of mitochondria
same,PINK1 expression,MOLM-13 cells; 5 mM valinomycin for 3 hr,increased PINK1 expression
same,mitochondrial mass,CD34+ cells,induced mitochondrial accumulation
same,mitochondrial mass in LSCs,[3]; freshly sorted LSCs,efficient clearance of mitochondria
same,mitochondrial mass in non-LSCs,[3]; freshly sorted non-LSCs,further accumulation of mitochondrial mass
sorbitan sesquioleate [SSO],normal HSPCs viability or colony forming ability,normal HSPCs,did not affect
